The text below walks through data of patent publication US9603890B2, “Methods for increasing the selective efficacy of gene therapy using CAR peptide and heparan-sulfate mediated macropinocytosis” (Vascular Biosciences, priority 2012, dated 2017).

Like-named read-outs stand apart in the source and are kept apart here. Where no end group is shown, it is not given here.

Series [1] has as its target T1, Heparinase I (EC 4.2.2.7) (Pedobacter heparinus, UniProt Q05819).
T1 sequence (Q05819 22-384): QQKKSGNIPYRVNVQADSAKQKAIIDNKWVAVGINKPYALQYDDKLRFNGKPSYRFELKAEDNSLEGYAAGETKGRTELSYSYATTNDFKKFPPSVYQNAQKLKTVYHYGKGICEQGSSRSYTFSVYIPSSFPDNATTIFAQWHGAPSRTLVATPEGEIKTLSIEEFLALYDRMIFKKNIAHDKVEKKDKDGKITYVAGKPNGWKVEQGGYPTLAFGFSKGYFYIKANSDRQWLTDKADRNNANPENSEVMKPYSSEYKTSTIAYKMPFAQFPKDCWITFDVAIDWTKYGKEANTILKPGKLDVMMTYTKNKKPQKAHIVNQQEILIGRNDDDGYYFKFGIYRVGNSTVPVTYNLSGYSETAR
Conditions: heparan sulfate moiety as substrate; cited from earlier work.

Series [2] deals with T2, Heparanase (EC 3.2.1.166) (Homo sapiens, UniProt Q9Y251).
T2 sequence (Q9Y251 158-543 limits assumed): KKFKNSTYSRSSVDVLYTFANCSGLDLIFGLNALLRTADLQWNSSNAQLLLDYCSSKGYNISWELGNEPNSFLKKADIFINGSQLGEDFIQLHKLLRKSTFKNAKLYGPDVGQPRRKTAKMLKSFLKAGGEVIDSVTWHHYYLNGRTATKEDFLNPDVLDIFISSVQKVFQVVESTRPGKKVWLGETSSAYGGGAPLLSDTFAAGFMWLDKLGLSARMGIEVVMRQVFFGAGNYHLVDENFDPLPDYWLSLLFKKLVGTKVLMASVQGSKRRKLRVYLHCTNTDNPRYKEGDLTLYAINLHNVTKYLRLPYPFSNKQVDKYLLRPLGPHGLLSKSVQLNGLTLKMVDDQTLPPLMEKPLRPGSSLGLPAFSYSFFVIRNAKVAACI
T2 sequence (Q9Y251 36-109 limits assumed): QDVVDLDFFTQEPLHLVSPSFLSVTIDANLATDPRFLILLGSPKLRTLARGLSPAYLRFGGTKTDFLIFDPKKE
Conditions: heparan sulfate moiety as substrate; cited from earlier work.

A short description of series [3]: Cell internalization and tissue penetration of truncated CAR versus CAR. It is filed as cell-based.
The subject of series [4] is rats with severe occlusive pulmonary hypertension induced by Sugen injection followed by hypoxia. The experiment in a line: MFN2 adenovirus gene therapy alone or co-administered with CAR peptide in severe occlusive PAH rats. The format is in vivo, rat. An excerpt: CAR peptide was able to exert its disease-selective adjuvant properties by allowing enhanced viral delivery and uptake of gene product (MFN2) in an animal model of severe occlusive PAH in rats. (A) Figure showing the effect of MFN2 GTx administered alone when compared to control and diseased animal not given MFN2 Gtx. Statistical significance was examined using ANOVA (see Supplement for further statistical information). (B) Change in mitofusion-2 mRNA levels relative to control. […] (D) mPAP (mmHg) levels in Sugen hypoxia rats.
Adenoviruses were used as viral delivery vectors to incorporate cDNA inserts of MFN2 into rats with severe occlusive pulmonary hypertension induced by Sugen injection followed by hypoxia (FIG. 1).
The MFN2 gene encodes the mitofusion-2 protein, which is a mitochondrial membrane protein that participates in mitochondrial fusion. Mitofusion-2 contributes to the maintenance and operation of the mitochondrial network, and is involved in the regulation of vascular smooth muscle cell (VSMC) proliferation. […] Successful delivery and uptake of the MFN2 gene via adenovirus delivery vector into diseased cells results in increased expression of the mitofusion-2 protein, regulation of VSMC proliferation, and a subsequent decrease in disease indicators. […]

Series [5] has as its system animal models of pulmonary arterial hypertension (PAH). The note with it: cited from earlier work.
The test system of series [6] is Chinese hamster ovary cells. The note with it: cited from earlier work.

As to “2-O-sulfo-α-L-iduronic acid-2-deoxy-2-acetamido-α-D-glucopyranosyl [IdoA2S-GlcNS]”, the “Heparinase I cleavage (EC 4.2.2.7)” value in series [1] was “Yes”. For the same substance, the “Heparanase cleavage (EC 3.2.1.166)” value in series [2] is reported as “No”.
In the case of CARSKNK [tCAR, truncated form of CAR], the “potency for cell internalization and tissue penetration versus parent peptide CAR” value in series [3] is reported as “more potent”.
As for “CARSKNKDC (also: cyclic, type not given here) [a 9 amino acid cyclic peptide …]”, the “increase in gene therapy transfected gene expression” value in series [4] is recorded as 7 ×. Further, in series [5] (CAR co-administered with vasodilators), the “increase in selective vasodilation” value was “approximately 2 ×”. In series [5] (in vivo), the “increase in co-administered drug concentration” value was 2 ×. Besides, the “binding of CAR to Chinese hamster ovary cells” value is “greatly reduced” in series [6] (cells treated with heparinase I and III); “greatly reduced” in series [6] (cells treated with heparinase I).
